One experiment concerns NCTC 13368. As to the kind of experiment: Effect of efflux pump inhibitors (EPIs) on MIC. It counts as cell-based, K. pneumoniae. The conditions noted are these: for MIC: Klebsiella pneumoniae; for +PABN MIC: PABN at 25 μg/ml. As to the method: (§1) 1. Grow up cultures of bacterial strains to be tested overnight.
(§2) 2. Dilute down overnight cultures to concentration of 1×10^6 bacteria/ml (OD0.01) in Tryptic soy broth (TSB).
(§3) 3. Add 100 μl of TSB media to column 2-column 12 in 96 well plate (keeping column 1 clear).
(§4) 4. Make up compound to a concentration of 64 μg/ml in water.
(§5) 5. Add 100 μl of antibiotic solution to the 1st and 2nd columns.
(§6) 6. Using a multichannel pipette take 100 μl from the 2nd column wells and pipette into 3rd column wells and repeat down the 96 well plate (remember to include controls i.e. uninfected media and media with no antibiotic).
(§7) 7. To each well (except uninfected control row H) add 50 μl/well of EPI at 4× final concentration in TSB.
(§8) 9. In wells used to test the effect of the EPI carbonyl cyanide 3-chlorophenylhydrazone (CCCP) the CCCP is added at 10 μg/ml final concentration.
(§9) 10. In wells used to test the effect of the EPI phenylalanine-arginine β-naphthylamide (PABN) the PABN is added at 25 μg/ml final concentration.
(§10) 11. In wells used to test the effect of the PABN+Mg, the PABN is added at 25 μg/ml final concentration, with 1 mM MgSO4 in TSB.
(§11) 12. Wrap plate with parafilm to prevent evaporation.
(§12) 13. Leave at desired temperature (37° C. unless specified elsewhere) for 20 hours.
(§13) 14. Next day check plates for growth and measure optical density (i.e. absorbance) at a wavelength of 600 nm (OD600).
(§14) Compound KMR-14-33 was tested against a range of bacterial species using the above protocol. Compound PP-A148 was also tested against a more limited range of bacterial species using the above protocol. For KMR-14-33 measurements were carried out for the compound alone, for the compound plus CCCP, for the compound plus PABN and for the compound plus PABN and plus Mg. For PP-A148 measurements were carried out for the compound alone and for the compound plus PABN.

For the next experiment, the system named is M6. Briefly: Effect of efflux pump inhibitors (EPIs) on MIC. The experiment is classed as cell-based, K. pneumoniae. The conditions noted are these: for MIC: Klebsiella pneumoniae; for +PABN MIC: PABN at 25 μg/ml. As to the method: as §1, §2, §3, §4, §5, §6, §7, §8, §9, §10, §11, §12, §13, §14
The next experiment concerns the target T1, E. coli Topo IV (Escherichia coli, UniProt P0AFI2+P20083).
T1 construct: purchased Inspiralis (Norwich, UK) TRIV01
As to the kind of experiment: Topo IV microplate assay. It counts as biochemical. The conditions noted are these: agent 10-75 μM, FIG. 5. As to the method:
(§15) The effect of the antimicrobial agents on gyrase was assessed using E. coli gyrase microplate assay kit (# TRG01) and with S. aureus gyrase microplate assay kit (# SATRG01). The effect of topoisomerase IV using was assessed using E. coli Topo IV microplate assay kit (# TRIV01) and with the S. aureus Topo IV microplate assay kit (# SATRIV01). All of these assay kits were obtained from Inspiralis (Norwich, UK). These assay kits are supplied with the relevant enzyme, substrate and buffers.
(§16) 1. Rehydrate wells with 3×200 μl Wash buffer (diluted from 20× stock with ultra-pure water).
(§17) 2. Immobilise 100 μl of 500 nM TF01 oligo in each well (5 μl of 10 μM TF01 oligo in 95 μl wash buffer).
(§18) 3. Incubate 5 minutes at room temperature.
(§19) 4. Wash off excess oligo with 3×200 μl Wash buffer.
(§20) 5. Incubate 2U (0.4 μl stock) of gyrase with 0.75 μg of relaxed pN01 in a reaction volume of 30 μl at 37° C. for 30 minutes in assay buffer—This is the part agent is added therefore the reaction volume is adjusted to account for this.
(§21) 6. Add 100 μl TF buffer (diluted from 20× stock) to well and incubate for a further 30 minutes at room temperature to allow triplex formation.
(§22) 7. Remove liquid from well and wash with 3×200 μl TF buffer to wash away unbound plasmid.
(§23) 8. Stain with DNA detection dye (diluted to ix with T10 buffer). Add 200 μl per well and incubate for 10-20 minutes at room temperature.
(§24) 9. Mix well and read in fluorescence plate reader Excitation wavelength: 495 nm; Emission wavelength: 537 nm. Use 485/520 filters in plate reader in 231.
(§25) 10. If required 10 μl of sample can be used to run on 1% agarose gel.
(§26) As the reaction volume is 30 μl make concentrations at 30× greater than required so 1 μl of the appropriate concentration can be added to the reaction. For each agent concentrations from a range of 10-75 μM.
(§27) The procedure for assessing effect of the agents on topoisomerase IV was the same as for the gyrase apart from the following changes; 1.5 U of topoisomerase IV was used in place of gyrase and supercoiled pN01 instead of relaxed pN01 was used in step 5. Results obtained were normalised using the following equation: […]
(§28) Xmin—minima among all data points
(§29) Xmax—maxima among all data points
(§30) Xi0-1—data point normalised between 0-1

The target in a further experiment is T2, S. aureus Topo IV (Staphylococcus aureus, UniProt P0C1S7+P0C1U9).
T2 construct: purchased Inspiralis (Norwich, UK) SATRIV01
Briefly: Topo IV microplate assay. It counts as biochemical. The settings on record: agent 10-75 μM, FIG. 5. The method, then: as §15, §16, §17, §18, §19, §20, §21, §22, §23, §24, §25, §26, §27, §28, §29, §30

The target in another experiment is T3, S. aureus gyrase (Staphylococcus aureus, UniProt P0A0K8+P20831).
T3 construct: purchased Inspiralis (Norwich, UK) SATRG01
As to the kind of experiment: Gyrase microplate assay. The experiment is classed as biochemical. The settings on record: agent 10-75 μM, FIG. 6. The method, then:
as §15, §16, §17, §18, §19, §20, §21, §22, §23, §24, §25, §26, §28, §29, §30

The target in another experiment is T4, E. coli gyrase (Escherichia coli, UniProt P0AES4+P0AES6).
T4 construct: purchased Inspiralis (Norwich, UK) TRG01
As to the kind of experiment: Gyrase microplate assay. The settings on record: agent 10-75 μM, FIG. 6. The experiment is classed as biochemical. As to the method: as §15, §16, §17, §18, §19, §20, §21, §22, §23, §24, §25, §26, §28, §29, §30

Setting [1] is: NCTC13368, read-out: Control with no EPI MIC.
[2] abbreviates: read-out: Control with no EPI MIC.

Structures are written as SMILES. In brackets after ≈: the same amount, converted by molar mass. Like-named read-outs stand apart in the source and are kept apart here.

T2 sequence (P0C1U9 whole entry): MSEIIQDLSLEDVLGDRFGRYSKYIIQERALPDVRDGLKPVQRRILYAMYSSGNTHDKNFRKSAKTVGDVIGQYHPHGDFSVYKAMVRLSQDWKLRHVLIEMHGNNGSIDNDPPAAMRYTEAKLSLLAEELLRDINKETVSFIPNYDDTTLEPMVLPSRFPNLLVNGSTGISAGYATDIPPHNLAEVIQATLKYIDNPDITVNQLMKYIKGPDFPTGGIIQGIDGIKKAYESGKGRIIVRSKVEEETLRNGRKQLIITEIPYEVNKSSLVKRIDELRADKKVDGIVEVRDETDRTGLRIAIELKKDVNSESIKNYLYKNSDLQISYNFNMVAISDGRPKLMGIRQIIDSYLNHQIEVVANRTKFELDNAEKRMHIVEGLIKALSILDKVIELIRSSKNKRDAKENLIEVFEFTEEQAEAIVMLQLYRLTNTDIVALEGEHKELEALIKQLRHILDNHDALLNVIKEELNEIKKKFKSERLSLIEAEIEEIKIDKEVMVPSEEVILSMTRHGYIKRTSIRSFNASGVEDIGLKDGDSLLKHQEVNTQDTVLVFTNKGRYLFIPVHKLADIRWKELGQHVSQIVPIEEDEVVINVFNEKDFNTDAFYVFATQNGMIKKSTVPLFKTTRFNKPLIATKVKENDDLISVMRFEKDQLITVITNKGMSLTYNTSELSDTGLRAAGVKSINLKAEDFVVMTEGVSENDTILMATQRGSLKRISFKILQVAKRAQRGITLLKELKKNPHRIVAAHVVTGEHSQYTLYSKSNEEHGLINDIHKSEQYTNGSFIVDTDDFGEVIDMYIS
T2 sequence (P0C1S7 whole entry): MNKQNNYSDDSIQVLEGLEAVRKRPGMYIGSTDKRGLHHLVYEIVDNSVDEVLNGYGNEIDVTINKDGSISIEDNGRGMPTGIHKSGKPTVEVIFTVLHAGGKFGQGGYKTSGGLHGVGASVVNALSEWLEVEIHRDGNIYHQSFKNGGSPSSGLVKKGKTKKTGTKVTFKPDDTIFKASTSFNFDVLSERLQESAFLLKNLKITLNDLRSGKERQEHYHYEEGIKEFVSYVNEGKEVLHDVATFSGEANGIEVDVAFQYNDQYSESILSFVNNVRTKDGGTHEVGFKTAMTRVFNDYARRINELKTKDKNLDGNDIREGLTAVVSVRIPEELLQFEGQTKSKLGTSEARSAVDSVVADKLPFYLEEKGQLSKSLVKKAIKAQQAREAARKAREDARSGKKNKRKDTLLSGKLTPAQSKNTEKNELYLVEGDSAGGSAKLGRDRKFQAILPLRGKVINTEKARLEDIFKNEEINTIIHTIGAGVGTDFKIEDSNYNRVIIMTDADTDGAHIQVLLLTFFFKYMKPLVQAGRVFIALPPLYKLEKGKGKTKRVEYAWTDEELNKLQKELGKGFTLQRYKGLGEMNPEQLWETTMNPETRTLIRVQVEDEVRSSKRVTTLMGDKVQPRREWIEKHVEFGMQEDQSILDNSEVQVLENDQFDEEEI
T1 sequence (P20083 whole entry): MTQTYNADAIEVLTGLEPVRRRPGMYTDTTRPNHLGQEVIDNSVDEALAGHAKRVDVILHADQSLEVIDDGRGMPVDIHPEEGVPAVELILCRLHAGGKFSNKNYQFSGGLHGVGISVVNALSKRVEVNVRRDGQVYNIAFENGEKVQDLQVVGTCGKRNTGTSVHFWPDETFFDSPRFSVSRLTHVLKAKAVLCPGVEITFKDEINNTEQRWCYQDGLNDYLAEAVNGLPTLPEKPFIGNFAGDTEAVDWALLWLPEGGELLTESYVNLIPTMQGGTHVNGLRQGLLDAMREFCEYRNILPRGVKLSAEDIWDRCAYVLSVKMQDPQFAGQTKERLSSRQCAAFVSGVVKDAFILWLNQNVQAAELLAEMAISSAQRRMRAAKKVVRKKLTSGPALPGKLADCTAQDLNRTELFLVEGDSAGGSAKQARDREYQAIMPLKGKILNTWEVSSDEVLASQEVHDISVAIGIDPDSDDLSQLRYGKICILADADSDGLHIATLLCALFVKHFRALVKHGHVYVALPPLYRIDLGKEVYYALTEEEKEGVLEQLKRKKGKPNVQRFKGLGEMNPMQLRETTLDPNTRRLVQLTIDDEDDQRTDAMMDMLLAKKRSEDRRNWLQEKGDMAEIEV
T1 sequence (P0AFI2 whole entry): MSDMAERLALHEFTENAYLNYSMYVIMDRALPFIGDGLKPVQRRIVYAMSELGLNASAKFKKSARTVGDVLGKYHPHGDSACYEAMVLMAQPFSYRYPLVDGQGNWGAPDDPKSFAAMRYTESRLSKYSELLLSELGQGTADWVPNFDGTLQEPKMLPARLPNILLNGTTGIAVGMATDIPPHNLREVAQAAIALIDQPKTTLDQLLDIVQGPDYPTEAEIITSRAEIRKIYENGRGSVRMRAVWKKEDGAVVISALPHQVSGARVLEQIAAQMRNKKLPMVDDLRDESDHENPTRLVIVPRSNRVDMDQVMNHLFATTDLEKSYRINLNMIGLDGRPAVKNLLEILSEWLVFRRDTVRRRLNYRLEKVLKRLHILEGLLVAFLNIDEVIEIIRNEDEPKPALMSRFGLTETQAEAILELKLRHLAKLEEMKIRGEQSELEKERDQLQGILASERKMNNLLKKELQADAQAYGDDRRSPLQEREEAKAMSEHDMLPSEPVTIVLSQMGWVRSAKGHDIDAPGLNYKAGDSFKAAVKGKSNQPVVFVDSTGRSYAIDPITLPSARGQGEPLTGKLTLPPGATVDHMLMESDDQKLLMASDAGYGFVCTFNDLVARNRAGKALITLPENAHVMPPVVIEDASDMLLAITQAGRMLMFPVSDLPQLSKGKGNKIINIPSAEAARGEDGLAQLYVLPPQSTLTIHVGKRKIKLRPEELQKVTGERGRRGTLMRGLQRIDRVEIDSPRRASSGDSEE
T3 sequence (P0A0K8 whole entry): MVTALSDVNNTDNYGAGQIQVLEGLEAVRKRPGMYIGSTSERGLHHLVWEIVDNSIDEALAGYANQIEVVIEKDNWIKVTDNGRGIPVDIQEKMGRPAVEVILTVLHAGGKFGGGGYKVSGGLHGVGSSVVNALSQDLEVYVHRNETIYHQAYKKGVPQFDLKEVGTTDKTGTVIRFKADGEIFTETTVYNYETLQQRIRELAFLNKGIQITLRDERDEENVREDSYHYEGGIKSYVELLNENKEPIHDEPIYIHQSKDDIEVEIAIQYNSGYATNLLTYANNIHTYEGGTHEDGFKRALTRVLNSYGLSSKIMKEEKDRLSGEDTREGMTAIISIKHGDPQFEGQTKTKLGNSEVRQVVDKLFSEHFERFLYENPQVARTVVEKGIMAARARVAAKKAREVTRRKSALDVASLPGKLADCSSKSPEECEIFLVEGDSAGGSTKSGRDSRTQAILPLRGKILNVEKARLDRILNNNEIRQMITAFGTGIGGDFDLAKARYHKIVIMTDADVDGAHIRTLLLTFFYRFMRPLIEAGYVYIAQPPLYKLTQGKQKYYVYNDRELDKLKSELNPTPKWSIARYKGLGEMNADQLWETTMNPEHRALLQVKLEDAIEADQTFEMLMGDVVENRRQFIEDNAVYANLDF
T3 sequence (P20831 whole entry): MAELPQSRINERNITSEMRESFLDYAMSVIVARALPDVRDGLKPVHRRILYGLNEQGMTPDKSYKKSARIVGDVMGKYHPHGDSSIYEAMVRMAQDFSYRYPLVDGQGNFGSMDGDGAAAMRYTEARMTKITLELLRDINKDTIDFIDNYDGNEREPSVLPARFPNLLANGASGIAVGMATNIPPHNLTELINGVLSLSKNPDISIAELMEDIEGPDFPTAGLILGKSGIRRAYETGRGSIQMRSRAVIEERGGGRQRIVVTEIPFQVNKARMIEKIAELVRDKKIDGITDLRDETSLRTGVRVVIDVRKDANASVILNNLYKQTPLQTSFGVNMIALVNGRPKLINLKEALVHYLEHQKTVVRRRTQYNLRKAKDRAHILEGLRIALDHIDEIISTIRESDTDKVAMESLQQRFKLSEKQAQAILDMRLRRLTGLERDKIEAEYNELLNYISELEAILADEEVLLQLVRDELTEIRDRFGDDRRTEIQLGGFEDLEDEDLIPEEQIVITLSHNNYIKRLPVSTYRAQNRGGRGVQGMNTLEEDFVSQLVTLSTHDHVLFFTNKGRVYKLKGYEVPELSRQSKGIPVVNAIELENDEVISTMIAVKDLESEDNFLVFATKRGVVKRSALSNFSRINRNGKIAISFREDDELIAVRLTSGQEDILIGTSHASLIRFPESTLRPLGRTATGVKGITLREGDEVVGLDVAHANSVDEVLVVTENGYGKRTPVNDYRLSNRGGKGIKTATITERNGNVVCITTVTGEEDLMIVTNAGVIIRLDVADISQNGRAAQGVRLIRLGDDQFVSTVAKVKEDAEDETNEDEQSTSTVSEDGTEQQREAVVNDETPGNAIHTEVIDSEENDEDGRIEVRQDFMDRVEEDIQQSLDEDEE

Regarding `COc1cc2c(cc1OCCCC(=O)Nc1cc(C(=O)Nc3ccc4sc(C(=O)N(C)C)cc4c3)n(C)c1)N=C[C@@H]1CCCN1C2=O` [KMR-14-33, (S)—N-(2-(dimethylcarbamoyl)benzo[b]thiophen-5-yl)-4-(4-((7-methoxy-5-oxo-2,3,5,11a-tetrahydro-1H-benzo[e]pyrrolo[1,2-a][1,4]-diazepin-8-yl)oxy)butanamido)-1-methyl-1H-pyrrole-2-carboxamide], the MIC in the experiment with NCTC 13368 (NCTC13368, read-out: +CCCP MIC) amounted to 2 µg/mL (≈ 3.05 µM); with NCTC 13368 (setting [1]), 2 µg/mL (≈ 3.05 µM); with M6 (read-out: +CCCP MIC), 0.125 µg/mL (≈ 0.19 µM); with M6 (setting [2]) it was 1 µg/mL (≈ 1.52 µM). The results for the “+PABN MIC” value in the experiment with NCTC 13368 (NCTC 13368) and in the experiment on M6 (M6) were 1 µg/mL and 0.125 µg/mL, respectively. Also, the “+PABN + Mg MIC” value in the experiment with NCTC 13368 (NCTC 13368, PABN at 25 μg/ml with 1 mM MgSO4) came out at 0.5 µg/mL; in the experiment on M6 (M6, PABN at 25 μg/ml with 1 mM MgSO4), 0.25 µg/mL.
For `COc1cc2c(cc1OCCCC(=O)Nc1cc(C(=O)Nc3ccc4oc(C(=O)N5CCSCC5)cc4c3)n(C)c1)N=C[C@@H]1CCCN1C2=O` [PP-A148, (S)-4-(4-((7-methoxy-5-oxo-2,3,5,11a-tetrahydro-1H-benzo-[e]pyrrolo[1,2-a][1,4]diazepin-8-yl)oxy)butanamido)-1-methyl-N-(2-(thiomorpholine-4-carbonyl)benzofuran-5-yl)-1H-pyrrole-2-carboxamide], the “effect on topoisomerase IV” value on E. coli Topo IV and at S. aureus Topo IV was “does not inhibit” throughout. For the same compound, the MIC with NCTC 13368 (setting [1]) fell in the range of 16 to 32 µg/mL (≈ 22.9 to 45.8 µM); with M6 (setting [2]) it was 0.25 to 0.5 µg/mL (≈ 0.358 to 0.716 µM). Also, the figures for the “+PABN MIC” value in the experiment on NCTC 13368 (NCTC 13368) and in the experiment with M6 (M6) were 2 to 8 µg/mL and 0.125 µg/mL, respectively. Also, the effect on gyrase entry at S. aureus gyrase and on E. coli gyrase was “inhibits” throughout.
For `O=C(O)c1cn(C2CC2)c2cc(N3CCNCC3)c(F)cc2c1=O` [CIP, ciprofloxacin, reference compound], the “effect on topoisomerase IV” value at E. coli Topo IV and at S. aureus Topo IV was “inhibits” throughout. For the same compound, the effect on gyrase result at S. aureus gyrase and on E. coli gyrase was “inhibits” in each case.

What is called MIC is the least concentration at which growth counts as inhibited.

Source of the values: patent US10640507B2, “PBD antibacterial agents” (KING'S COLLEGE LONDON, priority 2015, dated 2020).
